One may read the melting point as the temperature of the solid-liquid transition.

For the compound `CCCN(CCC)Cc1csc(-c2ncn3c2CN(C)C(=O)c2ccccc2-3)n1`, the melting point is 111 to 112 °C.

Compound `CC(C)N(CCC(CCN1CCCCC1)(C(N)=O)c1ccccc1Cl)Cc1ccccc1` (stereo not given) displayed a melting point of 104 to 111 °C.

`COC(=O)C=Cc1ccc2c(c1)Cc1cc(C=CC(=O)OC)ccc1-2`: the melting point fell in the range of 206 to 209 °C.

Compound `CCOC(=O)CCCN1C(=O)c2ccc(N/C(=C3\C(=O)Nc4ccccc43)c3ccccc3)cc2C1=O` gave a melting point of 78 to 80 °C.

The compound `COC(=O)c1[nH]c2c(C)ccc(C)c2c1SC` displayed a melting point of 82 to 85 °C.

Take `CN1CCC(C2c3sccc3CCn3ncnc32)CC1` (stereo not given): the melting point amounted to 123 °C.

With `NS(=O)(=O)c1ccc([C@H]2[C@H](C(=O)Nc3ccc(C(F)(F)F)cc3Cl)C23CCCC3)cc1` (relative stereo), the melting point lay in the range of 111 to 113 °C.

For the compound `CCOC(=O)CCCN1CCn2nc(C(=O)O)cc2C1=O`, the melting point was 175 °C.

Turning to `COc1ccc(-c2[nH]c(-c3ccc(F)cc3)cc2C(=O)N2CCOCC2)cc1OC`, the melting point was 190 °C.

With `CCCCCCN1N=C(c2ccc(OC)c(OC)c2)C2CC=CCC2C1=O` (stereo not given), the melting point lay within 74 to 75 °C.

The compound `S=C(Nc1ccccc1)OC1CN2CCC1CC2` (stereo not given) gave a melting point of 132 to 133 °C.

On to `Nc1nc(N)c(-c2cc(Cl)cc(Cl)c2Cl)nc1Br`, for which the melting point fell in the range of 222 to 224 °C.

The compound `Cc1ccc(CCN2CCN(c3nsc4ccccc34)CC2)c2c1C(C)(C)CC(=O)N2` gave a melting point of 129 °C.

For the compound `COc1ccc(NC(=O)c2ccc([N+](=O)[O-])cc2NC(=O)c2ccc(C(C)(C)C)cc2)cc1`, the melting point is 221 °C.

In turn, `O=C1c2cccc(-c3ccc(C(F)(F)F)cc3)c2CC1Br` (stereo not given) showed a melting point of 94 to 97 °C.

As for `COc1cc(C(=O)O)cc(OC)c1CC(C)C`, the melting point is 160 to 162 °C.

Regarding `COCc1nc2cc3c(cc2c(=O)[nH]1)C(Nc1ccc(C(=O)OC(C)(C)C)cc1)CC3` (racemic), the melting point was over 122 °C.

Compound `CC(=O)C(C)(C)Nc1nc(N)nc(O)c1[N+](=O)[O-]` showed a melting point of 289 °C.

The compound `O=C(O)CS(=O)c1cccc(-c2nc(=O)c3ccccc3s2)n1` (stereo not given) displayed a melting point of 186 to 188 °C.

In turn, `CC(=O)Nc1nc2ccc(S(=O)(=O)n3c(COC(C)(C)C(=O)O)cc4cc(C(F)(F)F)ccc43)cc2s1` came in with a melting point of 144 to 146 °C.

`CCc1c(C(N)=O)sc(SC)c1-c1oncc1C` showed a melting point of 93.5 to 94.5 °C.

Compound `CC(=O)N(CCCC(=NNC(N)=S)c1ccc(F)cc1)C(C)C` gave a melting point of 155 to 157 °C.

In the case of `C[C@](N)(Cc1ccccc1)C(=O)O`, the melting point was 137 to 138 °C.

As to `Nc1ccc(-c2cn(CCF)nn2)cc1`, the melting point lay in the range of 79 to 82 °C.

Take `Clc1ccc(Oc2ccccc2Oc2ncc(Br)cn2)nc1`: the melting point is 93 to 95 °C.

Regarding `O=c1ccc2cc([N+](=O)[O-])cc(-c3cccc4ccccc34)c2[nH]1`, the melting point fell in the range of 234 to 235 °C.

`CC(=O)N1CC(CCN2CC=C(c3ccc(Cl)cc3)CC2)c2ccccc21` (stereo not given) yielded a melting point of 116 to 118 °C.

In the case of `COC(=O)c1cc2c(cc1N)OCO2`, the melting point lay in the range of 107 to 108 °C.

As to `NC(=S)NCCCCCC(=O)Nc1ccc(C(F)(F)F)cc1`, the melting point lay in the range of 140 to 142 °C.

`CCOC(=O)c1ccoc1COc1cc(-c2nn(C)c(OC(F)F)c2Cl)c(F)cc1Cl`: the melting point lay within 59 to 61 °C.

`O=C(NCCCc1ccncc1)N(CCC12CC3CC(CC(C3)C1)C2)Cc1cccs1`: the melting point is 142 to 144 °C.

`N#Cc1ccc(C2CC(=O)N(CC3CC3)Cc3cncn32)cc1` (stereo not given) returned a melting point of 178 to 180 °C.

The compound `CC1(C)CC(=O)C2=C(C1)NC1=C(C(=O)CC(C)(C)C1)C2c1cc(Br)cc(Br)c1` registered a melting point of 288 to 290 °C.

Regarding `O=C1OCCC1Oc1ccc(C(F)(F)F)cc1` (stereo not given), the melting point fell in the range of 84 to 86 °C.

As to `COC(=O)CS(=O)(=O)c1ccc(N2CCN(c3ccc(C#N)cc3)C2=O)cc1`, the melting point fell in the range of 246 to 249 °C.

As to `CCCCc1ncc(/C=C2\C(=O)NC(=O)N2CCCC)n1Cc1ccc(C(=O)O)cc1`, the melting point was in the range of 163 to 165 °C.

For the compound `O=S1(=O)N=C(c2ccccc2)c2ccccc21`, the melting point turned out to be 118 °C.

As to `COc1ccc(Cn2c(=O)n([C@H]3CC[C@H](O)CC3)c3ncc(C(F)(F)F)cc32)cc1OC`, the melting point lay in the range of 128 to 130 °C.

The compound `CN(C)c1ccc(-c2nc(S)nnc2-c2ccc(F)cc2)cc1` came in with a melting point of 262 to 264 °C.

`CN(C)CC(c1ccc(OC(=O)c2ccccc2)cc1)C1(OC(=O)c2ccccc2)CCCCC1` (stereo not given) gave a melting point of 128 to 130 °C.

`CS(=O)c1nnc2c3ccccc3c(-c3ccccc3)nn12` (stereo not given) returned a melting point of 215 to 217 °C.

`O=C(COc1ccc(Cl)cc1)C1(Cl)CC1` showed a melting point of 78 °C.

Turning to `N#CN=C(Nc1ccc(Cl)nc1)Oc1ccccc1`, the melting point fell in the range of 133 to 134 °C.

In the case of `COc1ccccc1Cn1c(=O)c2c(Cl)cc(N3CCNCC3)cc2n(Cc2ccccc2)c1=O`, the melting point is 83 to 87 °C.

On to `CCCC1CCC2c3ccc(OCC)c(F)c3OC2C1` (stereo not given), for which the melting point was determined as 128 °C.

`Oc1ccc(C2CCCN2CCN2CCOCC2)cc1` (stereo not given) gave a melting point of 107 to 108 °C.

As to `NC(=S)c1ccc(Br)cc1`, the melting point was in the range of 142 to 144 °C.

`CCCc1c(OCCCOc2c(C(C)=O)ccc(OCCCC(=O)O)c2CCC)ccc(C(C)=O)c1O`: the melting point lay within 96 to 99 °C.

In turn, `Cc1nn(-c2c(Cl)cc(C(F)(F)F)cc2Cl)nc1COS(C)(=O)=O` came in with a melting point of 126 to 128 °C.

Compound `CN(C)c1ccc2c(c1)C(=O)N(c1ccc3ccsc3c1)C2` yielded a melting point of 195 to 197 °C.

Compound `Cc1cc(C)cc(CON2C(=O)COc3ccc(C=C4SC(=S)NC4=O)cc32)c1` showed a melting point of over 300 °C.

The compound `COc1ccc(F)cc1-c1cccc(-n2cnc(-c3nc(C)no3)c2)c1` registered a melting point of 153 to 158 °C.

Consider `CCOC(=O)c1c(C)nc(N2CCNCC2)nc1N1CCS(=O)(=O)CC1`, for which the melting point fell in the range of 154 to 159 °C.

The compound `CC(C)CNC(=O)c1cc([N+](=O)[O-])cc([N+](=O)[O-])c1` had a melting point of 149 to 155 °C.

Turning to `Cc1ccc(S(=O)(=O)OCC2Cc3cccc(-c4cccc(F)c4)c3O2)cc1` (stereo not given), the melting point was 88 to 90 °C.

`CC(C)(C)OC(=O)Nc1ccsc1NC(=O)OC(C)(C)C` showed a melting point of 165 to 167 °C.

With `CC(C)N(CCCc1ccccc1)[C@H]1CC[C@H](c2ccc(O)cc2)CC1`, the melting point lay within 146 to 154 °C.

For `NC(=O)c1cccc(-c2noc(-c3ccccc3F)n2)c1`, the melting point lay within 231 to 234 °C.

With `COc1ccc(N2CCN(c3ccc(-n4cnnc4S)cc3)CC2)cc1`, the melting point is 232 °C.

Consider `NC1=NC(=O)N(c2ccccc2)C1`, for which the melting point was in the range of 277 to 279 °C.

In turn, `COC(=O)c1ncn2c1CN=C(c1ccccc1F)c1cc(Cl)ccc1-2` had a melting point of 179 to 181 °C.

`C#CCOc1cc(Oc2ccccc2C)ncn1` displayed a melting point of 64.8 °C.

With `CC(O)(c1nc2ccc(S(=O)(=O)c3ccccc3)cc2c(=O)[nH]1)C(F)(F)F` (stereo not given), the melting point lay in the range of 202 to 204 °C.

`Cc1ccc(C(=O)c2cc([N+](=O)[O-])ccc2N2CCC(C)CC2)cc1` gave a melting point of 86 °C.

As for `CC(=O)N(C#N)C1(c2ccc(OCc3ccc4ccccc4n3)cc2)CCCC1`, the melting point worked out at 90 °C.

`COCc1ccsc1-c1nsc2ccc(-n3c(=O)cc(C(F)(F)F)n(C)c3=O)cc12` displayed a melting point of 131 to 133 °C.

`OC(c1ccccc1)c1cc2ccccc2cc1C(O)c1ccccc1` (stereo not given): the melting point was 145 °C.

On to `OC1(C#Cc2cc(Cl)ccc2Cl)CN2CCC1CC2` (stereo not given), for which the melting point was 197 to 200 °C.

Compound `CC(NC(=O)C(NC(=O)OCC1c2ccccc2-c2ccccc21)C(Cc1ccccc1)C(=O)O)C(=O)O` (stereo not given) showed a melting point of 114 to 116 °C.

`N#Cc1cc(N=Nc2cccc(Cl)c2)ccc1N` registered a melting point of 255 °C.

`Cc1cc(C(=O)c2ccccc2)ccc1NC(=O)C(C)(O)C(F)(F)F` (stereo not given) came in with a melting point of 123 to 124 °C.

Compound `NS(=O)(=O)c1ccc(-c2cc(-c3nc(-c4ccc(Cl)c(Cl)c4)cc(C(F)(F)F)n3)ccn2)s1` gave a melting point of 266 °C.

On to `CCCc1nc2c(N)nc3cc(OCc4ccc(C(F)(F)F)cc4)ccc3c2n1CC(C)C`, for which the melting point lay within 192 to 194 °C.

In turn, `C/C=C(/c1ccc(C(=O)O)cc1)c1ccc2c(c1)C(C)(C)CCC2(C)C` showed a melting point of 212 °C.

With `CC(=O)Nc1ccc(S(N)(=O)=O)cc1[N+](=O)[O-]`, the melting point fell in the range of 182 to 183 °C.

On to `COc1ccc2c(c1)C(C)(Cl)C(=S)N2` (stereo not given), for which the melting point lay within 202 to 204 °C.

`CC(C)(NC(=O)Oc1ccc([N+](=O)[O-])cc1)C(F)(F)F` yielded a melting point of 77 to 80 °C.

Regarding `CS(=O)(=O)OCCOc1ccccc1OCc1ccccc1`, the melting point was 98 to 100 °C.

As to `Cc1cn(-c2ccc(N3C[C@H](CO)OC3=O)cc2F)cn1`, the melting point was in the range of 151 to 153 °C.

Regarding `CC(C)(CNC(=O)c1cc2cccc(NS(=O)(=O)c3cccs3)c2[nH]1)SCc1ccccc1`, the melting point was in the range of 170 to 171 °C.

`CCCCn1c(=O)c2c(NC)n[nH]c2n(CCNCc2ccccc2)c1=O` had a melting point of 198 to 200 °C.

With `CCOC(=O)c1cc(-c2csc(-c3ccnc(N)c3)n2)c(=O)[nH]c1C`, the melting point is over 260 °C.

With `COC(=O)C1=C(CF)NC(C)=C(C(=O)OC(C)C)C1c1cccc(Cl)c1Cl` (stereo not given), the melting point was in the range of 148 to 149 °C.

`Cc1nn(CCOc2ccc(C=O)cc2)c(=O)c2ccccc12` showed a melting point of 90 °C.

Turning to `COc1cc(C)c(OCCCC(C)(C)C(=O)O)cc1C`, the melting point is 85 to 86 °C.

In the case of `COc1cc(C(Cl)(Cl)Cl)cc(OC)n1`, the melting point was in the range of 71 to 73 °C.

`COC(=O)c1sc2cc(CO)ccc2c1C` gave a melting point of 121 to 123 °C.

With `COCCOc1ccc2c(C3C(=O)Nc4ccccc43)ncnc2c1` (stereo not given), the melting point is 245 to 248 °C.

`CCCOc1nc(=O)n(C(=O)NC)s1` gave a melting point of 112 °C.

For `Cn1cncc1C1SCCCS1`, the melting point was 112 °C.

The values are drawn from a melting point compilation (Tetko et al.; mined from patent text by program, amines drawn as free bases though some values may be those of a salt).
